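Values below derive from 48-hour exposures of cells grown in 96-well plates, with endpoints linearly interpolated between the two concentrations bracketing the appropriate inhibition level. Abbreviation: GI50, concentration required for 50% inhibition of growth.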 The source made the active and inactive calls. No stated cut-off is given here; in the data, active = GI50 up to about 1.1 µM and inactive = higher.
Experiments:
Assay in all cases: NCI-60 cell line screen, 48 h
[1] = system: 786-0
[2] = system: A549
[3] = system: HCT-15
[4] = system: HT-29
[5] = system: IGROV-1
[6] = system: LOX IMVI
[7] = system: M14
[8] = system: NCI-H460
[9] = system: NCI-H522
[10] = system: OVCAR-5
[11] = system: SF-295
[12] = system: SK-MEL-28
[13] = system: SK-MEL-2
[14] = system: SN12C
[15] = system: SNB-78
[16] = system: UACC-62
[17] = system: UO-31
[18] = system: MCF7
[19] = system: NCI/ADR-RES
[20] = system: T47D

c1ccc2cc(C3NCCc4nc[nH]c43)ccc2c1 (configuration not stated)
GI50 [1]: 41.3 µM (inactive)
GI50 [2]: > 100 µM (inactive)
GI50 [3]: 42.6 µM
GI50 [4]: 41.7 µM (inactive)
GI50 [5]: > 100 µM (inactive)
GI50 [6]: 71.6 µM (inactive)
GI50 [7]: 39.9 µM (inactive)
GI50 [8]: 52 µM (inactive)
GI50 [9]: 34 µM (inactive)
GI50 [10]: > 100 µM (inactive)
GI50 [11]: 68.5 µM (inactive)
GI50 [12]: > 100 µM (inactive)
GI50 [13]: 72.8 µM (inactive)
GI50 [14]: 97.5 µM (inactive)
GI50 [15]: > 100 µM (inactive)
GI50 [16]: 55.7 µM (inactive)
GI50 [17]: 35.8 µM (inactive)

N=C(N)NCCCCCCC(=O)NC(O)C(=O)NCCCCNCCCN (configuration not stated)
GI50 [1]: 3070 µM (inactive)
GI50 [2]: 473 µM (inactive)
GI50 [3]: 656 µM
GI50 [4]: > 750 µM (inactive)
GI50 [5]: 665 µM (inactive)
GI50 [6]: 605 µM (inactive)
GI50 [7]: > 750 µM (inactive)
GI50 [18]: 745 µM (inactive)
GI50 [8]: 718 µM (inactive)
GI50 [9]: 479 µM (inactive)
GI50 [19]: > 750 µM (inactive)
GI50 [10]: > 750 µM (inactive)
GI50 [11]: 553 µM (inactive)
GI50 [12]: > 750 µM (inactive)
GI50 [13]: 505 µM (inactive)
GI50 [14]: > 750 µM (inactive)
GI50 [15]: > 750 µM (inactive)
GI50 [20]: > 750 µM (inactive)
GI50 [16]: 711 µM (inactive)
GI50 [17]: 590 µM (inactive)

COc1ccc(N2C(=O)C3CC(c4ccc(C)cc4)c4c([nH]c5ccccc45)C3C2=O)cc1 (configuration not stated)
GI50 [1]: 12.2 µM (inactive)
GI50 [2]: 12.2 µM (inactive)
GI50 [3]: 8.61 µM
GI50 [4]: 16.3 µM (inactive)
GI50 [5]: 38 µM (inactive)
GI50 [6]: 6.92 µM (inactive)
GI50 [7]: 33.8 µM (inactive)
GI50 [8]: 4.9 µM (inactive)
GI50 [9]: 19.5 µM (inactive)
GI50 [10]: > 72.3 µM (inactive)
GI50 [11]: > 48.8 µM (inactive)
GI50 [12]: > 49.9 µM (inactive)
GI50 [13]: > 75.2 µM (inactive)
GI50 [14]: 8.87 µM (inactive)
GI50 [15]: > 51.4 µM (inactive)
GI50 [16]: > 100 µM (inactive)
GI50 [17]: > 47.2 µM (inactive)

COc1c(O)ccc(/C=N/NC(=S)NCOCCOC(C)=O)c1OC
GI50 [1]: > 100 µM (inactive)
GI50 [2]: > 100 µM (inactive)
GI50 [3]: > 100 µM
GI50 [4]: > 100 µM (inactive)
GI50 [5]: > 100 µM (inactive)
GI50 [6]: > 100 µM (inactive)
GI50 [7]: > 100 µM (inactive)
GI50 [8]: > 100 µM (inactive)
GI50 [9]: > 100 µM (inactive)
GI50 [10]: > 100 µM (inactive)
GI50 [11]: > 100 µM (inactive)
GI50 [12]: > 100 µM (inactive)
GI50 [13]: > 100 µM (inactive)
GI50 [14]: > 100 µM (inactive)
GI50 [15]: > 100 µM (inactive)
GI50 [16]: > 100 µM (inactive)
GI50 [17]: > 100 µM (inactive)

CCCCCCCCCCCCCCCC(=O)Nc1ccn(C2OC(CO)C(O)C2O)c(=O)n1 (configuration not stated)
GI50 [1]: 4.01 µM (inactive)
GI50 [2]: 2.62 µM (inactive)
GI50 [3]: 17.7 µM
GI50 [4]: 25.7 µM (inactive)
GI50 [5]: 35.6 µM (inactive)
GI50 [6]: 5.25 µM (inactive)
GI50 [7]: 3.21 µM (inactive)
GI50 [18]: 0.94 µM (active)
GI50 [8]: 0.78 µM (active)
GI50 [9]: 2.25 µM (inactive)
GI50 [19]: 7.23 µM (inactive)
GI50 [10]: 45.4 µM (inactive)
GI50 [11]: 51.1 µM (inactive)
GI50 [12]: 41.9 µM (inactive)
GI50 [13]: > 100 µM (inactive)
GI50 [14]: 31 µM (inactive)
GI50 [15]: > 100 µM (inactive)
GI50 [20]: 30.1 µM (inactive)
GI50 [16]: 24.2 µM (inactive)
GI50 [17]: 3.4 µM (inactive)

CC12CC(Br)(Br)C(=O)C3C1CCCC32
GI50 [1]: 4.07 µM (inactive)
GI50 [2]: 14.6 µM (inactive)
GI50 [3]: 3.61 µM
GI50 [4]: 5.47 µM (inactive)
GI50 [5]: 10.1 µM (inactive)
GI50 [6]: 2.68 µM (inactive)
GI50 [7]: 3.64 µM (inactive)
GI50 [18]: 4.33 µM (inactive)
GI50 [8]: 14.9 µM (inactive)
GI50 [9]: 3.08 µM (inactive)
GI50 [19]: 2.51 µM (inactive)
GI50 [10]: 17.8 µM (inactive)
GI50 [11]: 15.9 µM (inactive)
GI50 [12]: 2.9 µM (inactive)
GI50 [13]: 13.9 µM (inactive)
GI50 [14]: 4.57 µM (inactive)
GI50 [15]: 20 µM (inactive)
GI50 [20]: 2.38 µM (inactive)
GI50 [16]: 7.13 µM (inactive)
GI50 [17]: 6.05 µM (inactive)

N=C1OC(c2ccc3c(c2)OCO3)C(NNS(=O)(=O)c2ccccc2)=C1O (configuration not stated)
GI50 [1]: > 100 µM (inactive)
GI50 [2]: > 100 µM (inactive)
GI50 [3]: > 100 µM
GI50 [4]: > 100 µM (inactive)
GI50 [5]: > 100 µM (inactive)
GI50 [6]: > 100 µM (inactive)
GI50 [7]: 46.6 µM (inactive)
GI50 [8]: > 100 µM (inactive)
GI50 [9]: 48.5 µM (inactive)
GI50 [10]: > 100 µM (inactive)
GI50 [11]: > 100 µM (inactive)
GI50 [12]: > 100 µM (inactive)
GI50 [13]: 68.2 µM (inactive)
GI50 [14]: > 100 µM (inactive)
GI50 [15]: > 100 µM (inactive)
GI50 [16]: > 100 µM (inactive)
GI50 [17]: > 100 µM (inactive)

COc1cc2oc(-c3ccccc3)cc(=O)c2c(O)c1C
GI50 [1]: > 100 µM (inactive)
GI50 [2]: > 100 µM (inactive)
GI50 [3]: > 100 µM
GI50 [4]: > 100 µM (inactive)
GI50 [5]: > 100 µM (inactive)
GI50 [6]: > 100 µM (inactive)
GI50 [7]: > 100 µM (inactive)
GI50 [8]: > 100 µM (inactive)
GI50 [9]: > 100 µM (inactive)
GI50 [10]: > 100 µM (inactive)
GI50 [11]: > 100 µM (inactive)
GI50 [12]: > 100 µM (inactive)
GI50 [13]: > 100 µM (inactive)
GI50 [14]: > 100 µM (inactive)
GI50 [15]: > 100 µM (inactive)
GI50 [16]: > 100 µM (inactive)
GI50 [17]: > 100 µM (inactive)

CCOC(C/N=c1/nc(N(C)C)ss1)OCC
GI50 [1]: 17.7 µM (inactive)
GI50 [2]: 57 µM (inactive)
GI50 [3]: 25.8 µM
GI50 [4]: 0.135 µM (active)
GI50 [5]: > 27.5 µM (inactive)
GI50 [6]: 16.3 µM (inactive)
GI50 [7]: 16.9 µM (inactive)
GI50 [18]: 2.5 µM (inactive)
GI50 [8]: 4.31 µM (inactive)
GI50 [9]: 0.0998 µM (active)
GI50 [19]: > 100 µM (inactive)
GI50 [10]: 19.5 µM (inactive)
GI50 [11]: 22.2 µM (inactive)
GI50 [12]: 21.5 µM (inactive)
GI50 [13]: 13.8 µM (inactive)
GI50 [14]: 19.2 µM (inactive)
GI50 [15]: 24.6 µM (inactive)
GI50 [20]: 23.4 µM (inactive)
GI50 [16]: 1.17 µM (inactive)
GI50 [17]: 43.5 µM (inactive)

NCC(NC(=O)OCc1ccccc1)C(=O)O (configuration not stated)
GI50 [1]: > 50 µM (inactive)
GI50 [2]: > 50 µM (inactive)
GI50 [3]: > 50 µM
GI50 [4]: > 50 µM (inactive)
GI50 [5]: > 50 µM (inactive)
GI50 [6]: > 50 µM (inactive)
GI50 [7]: > 50 µM (inactive)
GI50 [8]: > 50 µM (inactive)
GI50 [9]: > 50 µM (inactive)
GI50 [10]: > 50 µM (inactive)
GI50 [11]: > 50 µM (inactive)
GI50 [12]: > 50 µM (inactive)
GI50 [13]: > 50 µM (inactive)
GI50 [14]: > 50 µM (inactive)
GI50 [15]: > 50 µM (inactive)
GI50 [16]: > 50 µM (inactive)
GI50 [17]: > 50 µM (inactive)

Reference: ChEMBL document CHEMBL1201862, “PubChem BioAssay data set” (2004)
